In this test the target is T1, Glycogen phosphorylase, muscle form (Oryctolagus cuniculus, UniProt P00489).
T1 sequence (P00489 whole entry): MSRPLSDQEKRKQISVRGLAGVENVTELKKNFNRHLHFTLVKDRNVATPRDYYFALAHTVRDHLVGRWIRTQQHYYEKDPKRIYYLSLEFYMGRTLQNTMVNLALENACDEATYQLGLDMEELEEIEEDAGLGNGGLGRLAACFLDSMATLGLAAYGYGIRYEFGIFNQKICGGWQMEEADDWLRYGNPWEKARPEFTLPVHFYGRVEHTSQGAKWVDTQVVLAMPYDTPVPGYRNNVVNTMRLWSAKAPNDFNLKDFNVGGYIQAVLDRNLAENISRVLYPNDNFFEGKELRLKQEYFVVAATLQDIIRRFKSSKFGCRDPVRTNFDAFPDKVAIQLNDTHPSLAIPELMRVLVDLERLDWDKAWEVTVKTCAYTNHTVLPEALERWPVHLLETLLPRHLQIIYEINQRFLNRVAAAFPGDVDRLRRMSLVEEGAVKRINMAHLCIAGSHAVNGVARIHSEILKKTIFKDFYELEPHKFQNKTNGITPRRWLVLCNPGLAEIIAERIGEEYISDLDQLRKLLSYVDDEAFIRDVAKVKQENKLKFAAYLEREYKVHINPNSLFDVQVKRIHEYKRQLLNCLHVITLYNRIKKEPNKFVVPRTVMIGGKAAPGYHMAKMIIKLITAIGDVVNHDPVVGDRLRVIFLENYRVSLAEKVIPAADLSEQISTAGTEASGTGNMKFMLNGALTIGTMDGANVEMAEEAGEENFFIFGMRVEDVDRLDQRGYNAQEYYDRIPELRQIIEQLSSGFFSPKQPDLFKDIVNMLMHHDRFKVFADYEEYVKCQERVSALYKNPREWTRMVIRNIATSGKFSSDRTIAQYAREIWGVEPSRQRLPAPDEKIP
Kind of test: Competitive inhibition of rabbit muscle glycogen phosphorylase b. Also noted: species or system Muscle tissue.

As a reminder, the Ki is the dissociation constant of the complex between target and ligand, obtained from inhibition or displacement. Low readings indicate tighter binding, high ones weaker binding. The molecule `OCc1n[nH]c([C@@H]2O[C@H](CO)[C@@H](O)[C@H](O)[C@H]2O)n1` had a Ki of 105 µM. In turn, `OC[C@H]1O[C@@H](c2nnc(-c3ccccc3)[nH]2)[C@H](O)[C@@H](O)[C@@H]1O` gave a Ki of 7 µM. For `OC[C@H]1O[C@@H](c2nc(-c3ccc4ccccc4c3)n[nH]2)[C@H](O)[C@@H](O)[C@@H]1O`, the affinity, expressed as Ki, was 0.41 µM.

Source of the values: ChEMBL document CHEMBL2406926, “C-Glucopyranosyl-1,2,4-triazoles As New Potent Inhibitors of Glycogen Phosphorylase” (ACS Med Chem Lett, 2013).
